Measurements as given in patent US8183252B2, “Heterocyclic aspartyl protease inhibitors” (Schering Corporation, priority 2007, dated 2012).
Read-outs that look alike come from different tables or passages of the source.

Columns and labels:
[1] = molecular target: T1, human liver Cathepsin D (Homo sapiens, UniProt P07339); experiment: Human Cathepsin D FRET Assay; type: biochemical
T1 construct: Purified (>95%) human liver Cathepsin D; purchased Athens Research & Technology 16-12-030104; host or cells: human liver (tissue-derived)
T1 sequence (P07339 65-161 limits assumed): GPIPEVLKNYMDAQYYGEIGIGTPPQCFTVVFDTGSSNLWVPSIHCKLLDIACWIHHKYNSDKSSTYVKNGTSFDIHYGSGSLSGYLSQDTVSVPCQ
T1 sequence (P07339 169-412 limits assumed): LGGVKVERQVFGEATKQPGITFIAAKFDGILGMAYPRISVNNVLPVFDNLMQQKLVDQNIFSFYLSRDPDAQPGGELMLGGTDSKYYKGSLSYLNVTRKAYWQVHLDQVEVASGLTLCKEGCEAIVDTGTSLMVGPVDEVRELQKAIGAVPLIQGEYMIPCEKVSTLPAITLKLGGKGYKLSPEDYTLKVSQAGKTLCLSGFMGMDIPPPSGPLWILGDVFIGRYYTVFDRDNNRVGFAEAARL
Method: This assay can be run in either continuous or endpoint format. […] Substrate and enzyme are commercially available.
The assay is run in a 30 ul final volume using a 384 well Nunc black plate. 8 concentrations of compound are pre-incubated with enzyme for 30 mins at 37 C followed by addition of substrate with continued incubation at 37 C for 45 mins. The rate of increase in fluorescence is linear for over 1 h and is measured at the end of the incubation period using a Molecular Devices FLEX station plate reader.
Compound is diluted to 3× final concentration in assay buffer containing 3% DMSO. […] 10 ul of substrate is added to each well mixed and spun briefly to initiate the reaction.

[2] = molecular target: T2, human BACE1 (sproBACE1) (Homo sapiens, UniProt P56817); experiment: BACE-1 Peptide Hydrolysis Assay (HTRF); type: biochemical; details: read-out: BACE-1 Ki
T2 construct: sBACE1, corresponding to amino acids 1-454; made in house; host or cells: Sf9 insect cells (baculovirus), secreted into the medium
T2 sequence (P56817 22-454): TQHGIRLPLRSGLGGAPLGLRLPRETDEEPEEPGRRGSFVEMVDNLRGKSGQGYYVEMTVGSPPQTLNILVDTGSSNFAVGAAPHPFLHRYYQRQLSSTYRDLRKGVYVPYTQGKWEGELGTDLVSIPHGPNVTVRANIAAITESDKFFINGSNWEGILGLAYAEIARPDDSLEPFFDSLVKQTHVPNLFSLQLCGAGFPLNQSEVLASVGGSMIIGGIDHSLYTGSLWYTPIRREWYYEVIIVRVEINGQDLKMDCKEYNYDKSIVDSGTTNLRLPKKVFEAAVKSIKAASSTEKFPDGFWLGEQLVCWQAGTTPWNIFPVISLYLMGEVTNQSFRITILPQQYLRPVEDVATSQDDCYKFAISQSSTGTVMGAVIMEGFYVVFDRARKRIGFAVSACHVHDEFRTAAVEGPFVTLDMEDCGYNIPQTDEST
In short: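 Secreted sBACE1-myc/His from baculovirus-infected sf9 cells, purified on Q-sepharose then Ni-NTA. Substrate-initiated reactions ran 3 hr at 30° C., then were stopped with KF buffer (pH 8.0) containing SA-XL665 for HTRF read-out. EC50 was fitted by sigmoidal dose-response to percent change in ratio.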

[3] = compounds listed as exhibiting hCathD Ki under 75 nM, Ki interpolated from IC50, Km 4 uM, substrate 2.5 uM

CCCCC1(c2cccc(Br)c2)NC(=N)N(CC2CCN(C(=O)COc3ccccc3)CC2)C1=O (stereo not shown)
Ki [1, 3]: < 0.075 µM

N=C1N[C@](CCC2CCCCC2)(CC2CCCCC2)C(=O)N1Cc1cccc([N+](=O)[O-])c1
Ki [1, 3]: < 0.075 µM

CCCCNC(=O)NCc1ccc(CN2C(=N)NC(CCC3CCCCC3)(CC3CCCCC3)C2=O)cc1 (stereo not shown)
Ki [1, 3]: < 0.075 µM

CCCCc1cccc(C2(CCCC)NC(=N)N(CC3CCN(C(=O)COc4ccccc4)CC3)C2=O)c1 (stereo not shown)
Ki [1, 3]: < 0.075 µM

N=C1NC(CCC2CCCCC2)(c2cccc(Br)c2)C(=O)N1CC1CCN(C(=O)COc2ccccc2)CC1 (stereo not shown)
Ki [1, 3]: < 0.075 µM

N=C1N[C@](CCC2CCCCC2)(CC2CCCCC2)C(=O)N1Cc1ccc(F)cc1
Ki [1, 3]: < 0.075 µM

Cc1ccccc1CN1C(=N)N[C@](CCC2CCCCC2)(CC2CCCCC2)C1=O
Ki [1, 3]: < 0.075 µM

CCC[C@H]1CN(Cc2ccc(CC3C(=N)N[C@](CCC4CCCCC4)(CC4CCCCC4)C3=O)cc2)C(=O)N1 (stereo partly shown)
Ki [1, 3]: < 0.075 µM

C[C@@H](C1CCCCC1)N1C(=N)N[C@](CCC2CCCCC2)(CC2CCCCC2)C1=O
Ki [1, 3]: < 0.075 µM

N=C1N[C@](CCC2CCCCC2)(CC2CCCCC2)C(=O)N1Cc1ccc(Cl)cc1Cl [drawing 4505]
Ki [1, 3]: < 0.075 µM

N=C1N[C@](CCC2CCCCC2)(CC2CCCCC2)C(=O)N1Cc1ccc(F)cc1Cl
Ki [1, 3]: < 0.075 µM

N=C1NC(CCC2CCCCC2)(CC2CCCCC2)C(=O)N1CC1CCN(C(=O)COc2ccccc2)CC1 (stereo not shown)
Ki [1, 3]: < 0.075 µM

CCCCNC(=O)NCc1ccc(CN2C(=N)NC(CCC3CCCCC3)(CC3CCCCC3)CC2=O)cc1 (stereo not shown)
Ki [1, 3]: < 0.075 µM

CCCCOC1CCCC(C[C@@]2(CCC3CCCCC3)NC(=N)N(C)C2=O)C1 (stereo partly shown)
Ki [1, 3]: < 0.075 µM

CN1C(=N)NC(c2ccccc2)(c2cccc(-c3ccoc3)c2)C1=O (racemic) [5-[3-(3-FURANYL)PHENYL]-2-IMINO-3-METHYL-5-PHENYL-4-IMIDAZOLIDINONE (RACEMIC), 5-[3-(3-FURANYL)PHENYL]-2-IMINO-3-METHYL-5-PHENYL-4-IMIDAZOLIDINONE]
Ki [2]: < 5 µM

CN1C(=N)NC(c2ccccc2)(c2cccc(NC(=O)c3ccccc3)c2)C1=O (racemic)
Ki [2]: < 5 µM

N=C1N[C@](CCC2CCCCC2)(CC2CCCCC2)C(=O)N1CCC(c1ccccc1)c1ccccc1
Ki [1, 3]: < 0.075 µM

CC(C)C[C@H](CO)N1C(=N)N[C@](CCC2CCCCC2)(CC2CCCCC2)C1=O
Ki [1, 3]: < 0.075 µM

CN1C(=N)N[C@](C)(c2cc(-c3cncc(C#N)c3)cs2)[C@H](C2CCC2)C1=O
Ki [2]: < 5 µM

CN1C(=N)N[C@](CCc2ccccc2)(C[C@H]2CCC[C@@H](Nc3ccccc3)C2)C1=O
Ki [2]: < 5 µM

Cc1nn(C)c2sc([C@]3(C)CC(=O)N(C)C(=N)N3)cc12
Ki [2]: < 5 µM

CN1C(=N)N[C@](CCC2CCCCC2)(C[C@H]2CCC[C@@H](NS(=O)(=O)c3ccccc3)C2)C1=O
Ki [2]: < 5 µM

CN1C(=N)NC(c2cccc(Br)c2)(C2(C)CC2)C1=O (stereo not shown) [5-(3-BROMOPHENYL)-2-IMINO-3-METHYL-5-(1-METHYLCYCLOPROPYL)-4-IMIDAZOLIDINONE]
Ki [2]: < 5 µM

N=C1NC(c2ccccc2)(c2ccccc2)C(=O)N1C[C@H]1CCCN(C(=O)C2CC2)C1
Ki [2]: < 5 µM

CN1C(=N)N[C@](C)(c2ccc3nn(CC4CCCCC4)cc3c2)CC1=O
Ki [2]: < 5 µM

CC1(c2cccc(-c3cccc(Cl)c3)c2)NC(=N)N(CC2CCN(C(=O)Cc3ccccc3)C2)C1=O (stereo not shown)
Ki [2]: < 5 µM

CC1(c2cccc(-c3cccc(Cl)c3)c2)NC(=N)N(CC2CCN(C(=O)C3CCCCC3)C2)C1=O (stereo not shown)
Ki [2]: < 5 µM

CCc1sc([C@@]2(C)NC(=N)N(C)C(=O)[C@@H]2CC)cc1-c1cccc(C#N)c1
Ki [2]: < 5 µM

N=C1NC(c2cccc(-c3cccc(Cl)c3)c2)(C2CC2)C(=O)N1C1CCOCC1 (stereo not shown) [4-imidazolidinone, 5-(3′-chloro[1,1′-biphenyl]-3-yl)-5-cyclopropyl-2-imino-3-(tetrahydro-2H-pyran-4-yl)-]
Ki [2]: < 5 µM

CN1C(=N)N[C@](C)(c2cc(-c3cccc(C#N)c3)cs2)[C@@H](c2csc3ccccc23)C1=O
Ki [2]: < 5 µM

N=C1N[C@](CCC2CCCCC2)(CC2CCCCC2)C(=O)N1Cc1ccc(Cl)cc1Cl [drawing 4522]
Ki ([1]; Ki interpolated from IC50 using Km 4 uM and substrate 2.5 uM, read-out: hCathD Ki): 0.00045 µM

CN1C(=N)N[C@](C)(c2csc3c(-c4ccccc4)cccc23)CC1=O
Ki [2]: < 5 µM

CN1C(=N)NC(C)(c2cccc(-c3cc(Cl)ccc3CNC(=O)Nc3ccccc3)c2)C1=O (stereo not shown) [urea, N-[[5-chloro-3′-(2-imino-1,4-dimethyl-5-oxo-4-imidazolidinyl)[1,1′-biphenyl]-2-yl]methyl]-N′-phenyl-]
Ki [2]: < 5 µM

C[C@H]1C(=O)N(C)C(=N)N[C@]1(C)c1cc(-c2ccc(F)c(C#N)c2)cs1
Ki [2]: < 5 µM

CN1C(=N)N[C@](C)(c2cc(Br)co2)CC1=O
Ki [2]: < 5 µM

CCCCS(=O)(=O)N1CCC(CN2C(=N)NC(c3ccccc3)(c3ccccc3)C2=O)CC1 [piperidine, 1-(butylsulfonyl)-4-[(2-imino-5-oxo-4,4-diphenyl-1-imidazolidinyl)methyl]-]
Ki [2]: < 5 µM

CN1C(=N)N[C@](C)(c2nc(-c3cccnc3)cs2)CC1=O
Ki [2]: < 5 µM

N=C1NC(c2ccccc2)(c2ccccc2)C(=O)N1CC1CCN(S(=O)(=O)c2ccc(OC(F)(F)F)cc2)CC1 [piperidine, 4-[(2-imino-5-oxo-4,4-diphenyl-1-imidazolidinyl)methyl]-1-[[4-(trifluoromethoxy)phenyl]sulfonyl]-]
Ki [2]: < 5 µM

CN1C(=N)NC(C)(c2ccnc(-c3cc(Cl)cc(Cl)c3)c2)C1=O (stereo not shown)
Ki [2]: < 5 µM

N=C1NC(c2ccccc2)(c2ccccc2)C(=O)N1CC1CCN(C(=O)Nc2cccc(F)c2)CC1
Ki [2]: < 5 µM

CC(=O)N[C@@H]1CCC[C@H](C[C@@]2(CCc3ccccc3)NC(=N)N(C)C2=O)C1
Ki [2]: < 5 µM

CN1C(=N)NC(C)(c2cc(-c3cccc(C#N)c3)cs2)C(n2cccn2)C1=O (single isomer, unassigned)
Ki [2]: < 5 µM

CC(C)n1cc([C@H]2C(=O)N(C)C(=N)N[C@]2(C)c2cc(-c3cccc(C#N)c3)cs2)cn1
Ki [2]: < 5 µM

CN1C(=N)N[C@](CCC2CCCCC2)(C[C@H]2CCC[C@@H](NC(=O)c3ccnnc3)C2)C1=O
Ki [2]: < 5 µM

N=C1NC(c2ccccc2)(c2ccccc2)C(=O)N1CC1CCN(S(=O)(=O)c2ccccc2)CC1 [piperidine, 4-[(2-imino-5-oxo-4,4-diphenyl-1-imidazolidinyl)methyl]-1-(phenylsulfonyl)-]
Ki [2]: < 5 µM

CN1C(=N)N[C@](CCc2ccccc2)(C[C@H]2CCC[C@@H](NC(=O)c3ccncc3)C2)C1=O
Ki [2]: < 5 µM

CN1C(=N)NC(C)(c2cc(-c3cccc(C#N)c3)cs2)C(CC=Cc2ccc(F)cc2)C1=O (stereo not shown)
Ki [2]: < 5 µM

CN1C(=N)N[C@](C)(c2cc(-c3ccc(F)c(C#N)c3)nn2C)CC1=O
Ki [2]: < 5 µM

CN1C(=N)N[C@](CCC2CCCCC2)(C[C@H]2CCC[C@@H](NC(=O)NC(=O)c3ccccc3)C2)C1=O
Ki [2]: < 5 µM

CN1C(=N)N[C@](C)(c2cc(-c3ccc(F)c(C#N)c3)cs2)[C@@H](C2CC2)C1=O
Ki [2]: < 5 µM

N=C1N[C@](CCC2CCCCC2)(CC2CCCCC2)C(=O)N1Cc1ccc([N+](=O)[O-])cc1
Ki [1, 3]: < 0.075 µM

CSc1cccc(-c2csc([C@]3(C)CC(=O)N(C)C(=N)N3)c2)c1
Ki [2]: < 5 µM

N=C1NC(c2ccccc2)(c2ccccc2)C(=O)N1Cc1cccc(NC(=O)C2CCCCC2)c1
Ki [2]: < 5 µM

CCC(CO)N1C(=N)NC(c2cccc(-c3cccc(Cl)c3)c2)(C2CC2)C1=O (stereo not shown) [4-imidazolidinone, 5-(3′-chloro[1,1′-biphenyl]-3-yl)-5-cyclopropyl-3-[1-(hydroxymethyl)propyl]-2-imino-]
Ki [2]: < 5 µM

CCS(=O)(=O)Nc1ccc(CN2C(=N)NC(c3ccccc3)(c3ccccc3)C2=O)cc1 [ethanesulfonamide, N-[4-[(2-imino-5-oxo-4,4-diphenyl-1-imidazolidinyl)methyl]phenyl]-]
Ki [2]: < 5 µM

CN1C(=N)N[C@](C)(c2ncc(-c3cccc(Br)c3)s2)CC1=O
Ki [2]: < 5 µM

CN1C(=N)N[C@](C)(c2cc(-c3cccnc3F)cs2)[C@@H](C2CC2)C1=O
Ki [2]: < 5 µM

CN1C(=N)NC(c2ccccc2)(c2cccc(NS(=O)(=O)c3cccs3)c2)C1=O (racemic)
Ki [2]: < 5 µM

CC(C)Oc1cc(Cl)cc(-c2csc([C@]3(C)CC(=O)N(C)C(=N)N3)c2)c1
Ki [2]: < 5 µM

CCC(C)N1C(=N)NC(c2cccc(-c3cccc(Cl)c3)c2)(C2CC2)C1=O (stereo not shown) [4-imidazolidinone, 5-(3′-chloro[1,1′-biphenyl]-3-yl)-5-cyclopropyl-2-imino-3-(1-methylpropyl)-]
Ki [2]: < 5 µM

N=C1NC(c2cccc(-c3cccc(Cl)c3)c2)(C2CC2)C(=O)N1CC(F)(F)F (stereo not shown) [4-imidazolidinone, 5-(3′-chloro[1,1′-biphenyl]-3-yl)-5-cyclopropyl-2-imino-3-(2,2,2-trifluoroethyl)-]
Ki [2]: < 5 µM

CN1C(=N)NC(c2ccccc2)(c2cc(-c3cccc(Cl)c3)cs2)C1=O (stereo not shown) [5-[4-(3-CHLOROPHENYL)-2-THIENYL]-2-IMINO-3-METHYL-5-PHENYL-4-IMIDAZOLIDINONE]
Ki [2]: < 5 µM

CN1C(=N)NC(c2cccc(Br)c2)(C2CCC2)C1=O (stereo not shown) [5-(3-BROMOPHENYL)-5-CYCLOBUTYL-2-IMINO-3-METHYL-4-IMIDAZOLIDINONE]
Ki [2]: < 5 µM

CN1C(=N)NC(c2ccccc2)(c2cccc(NS(=O)(=O)c3cccc(C#N)c3)c2)C1=O (racemic)
Ki [2]: < 5 µM
